Results reported in patent US20160051513A1, “USE OF 4-BENZAMIDE IN THE TREATMENT OF NEUROPATHIC PAIN” (LES LABORATOIRES SERVIER, priority 2013, published 2016).
Structures can show the parent of a compound that is named as a salt.

Legend:
[1] = tested on: model of diabetic neuropathy caused by streptozocin (STZ); test: Mechanical hyperalgesia (paw pressure vocalisation threshold) in model of diabetic neuropathy caused by streptozocin; type: in vivo, rat; conditions: for effect of reference treatments compared with the compound: STZ rats
Method: The effects of 4-{3-[cis-hexahydrocyclopenta[c]pyrrol-2(1H)-yl]propoxy}benzamide and of two reference treatments for neuropathic pain (gabapentin and pregabalin) were studied in the rat, in the model of diabetic neuropathy caused by streptozocin (STZ).
In rats, administration of high-dose STZ (>35 mg/kg) causes diabetes which is similar to hyperglycaemic diabetes mellitus in humans. This is brought about by histopathological changes in the beta cells of islets of Langerhans and is associated with neuropathic pain. This pain is made manifest especially by mechanical hyperalgesia which can be attested by the lowering of the animal's vocalisation threshold when an increasing pressure is applied to the paw (Courteix et al., Pain, 1993, 53(1):81-8). During the test, a weight is placed on the rat's paw; its weight (in grams) increases until the animal vocalises. In this experiment, 21 days after the intraperitoneal injection of STZ (72 mg/kg), the rats develop diabetes characterised especially by hyperglycaemia (controlled during the experiment by injection of insulin) and associated with mechanical hyperalgesia. Indeed, the vocalisation threshold of the rats is lowered by half compared to the threshold which those animals had prior to injection of STZ (FIG. 1).

[2] = tested on: mechanical hyperalgesia caused by chronic constriction (CCI) of the sciatic nerve; test: Mechanical hyperalgesia (vocalisation threshold) in model of neuropathy caused by chronic constriction (CCI) of the sciatic nerve; type: in vivo, rat; conditions: for reversal of the hyperalgesia (vocalisation threshold versus before the procedure): after 4 days of chronic treatment
Description: The effects of 4-{3-[cis-hexahydrocyclopenta[c]pyrrol-2(1H)-yl]propoxy}benzamide and of gabapentin were studied on the mechanical hyperalgesia caused in the rat by chronic constriction (CCI) of the sciatic nerve.
This model of post-traumatic neuropathic pain closely reproduces the symptoms of neuropathic pain which can be observed in humans, namely mechanical and thermal hyperalgesia, mechanical allodynia and spontaneous pain (Bennett and Xie, Pain, 1988, 33(1):87-107; Munger et al., Exp Neurol, 1992, 118(2):204-14; Kim et al., Brain Res, 1997, 113(2):200-6.).

[3] = tested on: thermal allodynia after administration of oxaliplatin (OXA); test: Thermal (cold) allodynia, tail withdrawal time in cold bath at 10° C, model of neuropathy caused by oxaliplatin; type: in vivo, rat; conditions: for reversal of the allodynia (tail withdrawal time versus before the procedure): oxaliplatin 6 mg/kg i.p.
Description: The effects of 4-{3-[cis-hexahydrocyclopenta[c]pyrrol-2(1H)-yl]propoxy}benzamide and of two reference treatments for neuropathic pain (gabapentin and pregabalin) were studied on the thermal allodynia which occurs in rats after administration of oxaliplatin (OXA). Oxaliplatin is a synthetic anticancer medication from the group of agents derived from platinum, especially used in the treatment of cancers of the colon and rectum.
In the rat, acute administration of oxaliplatin specifically causes cold hyperalgesia and allodynia in the subsequent 24 hours, which lasts for several days. This animal model therefore closely mimics the painful symptoms observed in humans after infusion of oxaliplatin, especially the rapid appearance of intense sensory disturbances caused by cold, of the hyperalgesic and allodynic type (Ling et al. Toxicology. 2007; 234(3):176-84).
The results of this study confirm that, 36 hours after acute intraperitoneal administration of oxaliplatin (6 mg/kg), the rats develop cold allodynia, reflected by very rapid withdrawal of their tail when it is placed in a cold bath at 10° C. Indeed, this withdrawal time is, on average, half as long as that of the rats before administration of oxaliplatin (FIG. 3).

[4] = tested on: mechanical hyperalgesia caused by chronic constriction (CCI) of the sciatic nerve; test: Mechanical hyperalgesia (vocalisation threshold) in CCI model, compound and agomelatine on their own or in association; type: in vivo, rat; conditions: every day for 5 days, S 0.3 mg of base/kg per os, agomelatine 10 mg/kg i.p., alone or in association
Method: The effects of 4-{3-[cis-hexahydrocyclopenta[c]pyrrol-2(1H)-yl]propoxy}benzamide and agomelatine, administered on their own or in association, were studied on the mechanical hyperalgesia caused in the rat by chronic constriction (CCI) of the sciatic nerve (see Example B).
The vocalisation threshold was measured in the animals every day for 5 days, before and 45 minutes after the administration of 4-{3-[cis-hexahydrocyclopenta[c]pyrrol-2(1H)-yl]-propoxy}benzamide hydrochloride at a dose of 0.3 mg of base/kg per os (the compound being referred to as S in FIG. 4) and agomelatine at a dose of 10 mg/kg i.p., on their own or in association.

[5] = tested on: anxiety associated with the neuropathic pain caused by chronic constriction (CCI) of the sciatic nerve; test: Anxiety associated with neuropathic pain caused by CCI (time in open parts of cylindrical corridor); type: in vivo; conditions: CCI rat, 4 weeks after constriction
Method: The effects of 4-{3-[cis-hexahydrocyclopenta[c]pyrrol-2(1H)-yl]propoxy}benzamide were studied on the anxiety associated with the neuropathic pain caused by chronic constriction (CCI) of the sciatic nerve in the rat.
In this study, the rats are placed for 5 minutes in a cylindrical corridor which has two parts closed off by a wall and two opposite parts which are open. The test creates a conflict between the rodent's natural desire to explore and its fear of open spaces which make it vulnerable to predators. Anxiety is measured in this test by the time spent by the rat in exploring the open parts of the cylindrical corridor (Bleickardt et al. Psychopharmacology (Berl), 2009, 202(4):711-8; Alba-Delgado et al. Biol. Psychiatry, 2013, 73(1):54-62).

[6] = tested on: depression associated with the neuropathic pain caused by CCI; test: Depression associated with neuropathic pain caused by CCI (duration of immobility in cylinder filled with water); type: in vivo; conditions: CCI rat, 4 weeks after constriction
Method: The effects of 4-{3-[cis-hexahydrocyclopenta[c]pyrrol-2(1H)-yl]propoxy}benzamide were studied on the depression associated with the neuropathic pain caused by CCI in the rat. In this study, the rat is placed for 5 minutes in a cylinder filled with water, out of which it is unable to climb. After struggling in the water, the animal becomes immobile, reflecting “behavioural despair”, which occurs when the animal realises that it will not be able to escape. Depressive behaviour is measured in this test by the duration of immobility.

[7] = Clinical acceptability profile; type: in vivo, human

| SMILES | reversal of the hyperalgesia (vocalisation threshold versus before the procedure) [2] | reversal of the allodynia (tail withdrawal time versus before the procedure) [3] | anti-hyperalgesic effect (vocalisation threshold), chronic administration [4] | effect of reference treatments compared with the compound [1] | other results |
| --- | --- | --- | --- | --- | --- |
| NC(=O)c1ccc(OCCCN2C[C@H]3CCC[C@H]3C2)cc1 [S, 4-{3-[cis-hexahydrocyclopenta[c]pyrrol-2(1H)-yl]propoxy}benzamide hydrochloride] | complete reversal of the hyperalgesia | complete reversal of the allodynia | moderate anti-hyperalgesic effect | – | value of the vocalisation threshold relative to non-diabetic animals ([1]; 3 mg of base per kg per os, from the second day of administration): the same as that of non-diabetic animals; vocalisation threshold compared to animals having been given the carrier ([1]; STZ 72 mg/kg i.p., 21 days after, 3 mg of base per kg per os): substantial and significant increase in the vocalisation threshold; anti-hyperalgesic effect (vocalisation threshold) ([2]; 12 days after CCI, 1 mg of base/kg per os): significant anti-hyperalgesic effect; anti-allodynic effect (tail withdrawal time, cold bath 10° C) ([3]; 36 hours after oxaliplatin 6 mg/kg i.p., 0.3 mg of base/kg per os, from D1, 1 hour after a single administration): significant anti-allodynic effect |
| NC(=O)c1ccc(OCCCN2C[C@H]3CCC[C@H]3C2)cc1 [4-{3-[cis-hexahydrocyclopenta[c]pyrrol-2(1H)-yl]-propoxy}benzamide] | – | – | – | – | beneficial effect on vocalisation threshold over time ([1]; administered every day for 5 days): maintained over time; effects on the anxiety associated with the neuropathic pain [5]: beneficial effects; effects on the depression associated with the neuropathic pain [6]: beneficial effects; acceptability profile ([7]; healthy volunteers): good acceptability profile; acceptability profile ([7]; patients suffering from Alzheimer's disease): good acceptability profile |
| CC(C)C[C@H](CN)CC(=O)O [pregabalin, reference compound] | – | rapid reversal is also observed | – | entirely comparable | – |
| COc1ccc2cccc(CCNC(C)=O)c2c1 [agomelatine, reference compound] | – | – | moderate and very inconstant anti-hyperalgesic effect | – | – |
| NCC1(CC(=O)O)CCCCC1 [gabapentin, reference compound] | reversal is also observed | rapid reversal is also observed | – | entirely comparable | – |
